This note sets out measurements from ChEMBL document CHEMBL1201862, “PubChem BioAssay data set” (2004).

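Compound exposure: 48 hours, 5 concentrations, 96-well plates. At the GI50, growth is halved.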 Active and inactive are the calls of the source. Cut-off read from the data, not from the text of the source: active = GI50 up to about 1.1 µM and inactive = higher. A value given as a limit tells only on which side of the number the result lay.

Holding throughout (assay): NCI anticancer screen, dose series, 48 h
Assay [1] has as its system RPMI-8226.
The test system of assay [2] is SF-295.
Assay [3] concerns UACC-257.
Assay [4] concerns SW-620.
The test system of assay [5] is IGROV-1.
Assay [6] relates to K562.
Assay [7] deals with HCT-15.
The test system of assay [8] is HCC 2998.
Assay [9] concerns CCRF-CEM.
Assay [10] deals with SN12C.
The test system of assay [11] is NCI/ADR-RES.
Assay [12] relates to BT-549.
The subject of assay [13] is RXF 393.
The test system of assay [14] is SNB-75.
In assay [15] the test system is ACHN.
The subject of assay [16] is HOP-92.
The test system of assay [17] is SNB-78.
Assay [18] has as its system NCI-H226.
The test system of assay [19] is MDA-MB-231.
Assay [20] relates to HCT-116.

Turning to `CCNC(=O)/C(=C/c1ccc(OC)cc1)c1cc(OC)c(OC)c(OC)c1`, the GI50 was 14 µM (inactive) in assay [1]; 2.98 µM (inactive) in assay [2]; 13.5 µM (inactive) in [3]; 4.52 µM (inactive) in [4]; 19.7 µM (inactive) in assay [5]; 3.19 µM (inactive) in assay [6]. In addition, the GI50 in assay [7] was 4.11 µM; in [8] it was 4.68 µM (inactive); in [9] it was 6.79 µM (inactive); in assay [10], 20.7 µM (inactive); in assay [11] it was 3 µM (inactive); in [12], 14.4 µM (inactive). Further, the GI50 in assay [13] is 1.95 µM (inactive); in assay [14], 4.97 µM (inactive); in assay [15], 32.8 µM (inactive); in assay [16] it was 28.3 µM (inactive); in assay [17] it was 23.1 µM (inactive); in assay [18] it was 40.7 µM (inactive). Further, the GI50 in assay [19] is 6.41 µM (inactive); in assay [20] it was 6.18 µM (inactive).
On to `Cc1c(C(=O)C/C(=N\O)C(=O)Nc2cc(Cl)c(Cl)cc2Cl)[n+]([O-])c2ccccc2[n+]1[O-]`, for which the GI50 in assay [1] is 9.33 µM (inactive); in [2], 25.9 µM (inactive); in assay [3] it was 7.85 µM (inactive); in assay [4], 2.9 µM (inactive); in assay [5] it was 3.71 µM (inactive); in assay [6], 25.9 µM (inactive). For the same molecule, the GI50 in assay [7] is 8.17 µM; in assay [8], 7.06 µM (inactive); in [9], 32.7 µM (inactive); in assay [10], 4.83 µM (inactive); in assay [13] it was 22.5 µM (inactive); in [14], 33.2 µM (inactive). The GI50 was 17.5 µM (inactive) in [15]; 19.2 µM (inactive) in [16]; 41.3 µM (inactive) in assay [17]; 17 µM (inactive) in assay [18]; 4.85 µM (inactive) in [20].
With `COc1cc2ccnc([C@@H](OC(=O)c3ccccc3)c3ccc(OC)c(OC)c3OC)c2cc1OC`, the GI50 in assay [1] was 54.3 µM (inactive); in [2], 21.2 µM (inactive); in [3], > 100 µM (inactive); in assay [4] it was 36.5 µM (inactive); in assay [5], > 100 µM (inactive); in assay [6] it was 26.7 µM (inactive). For the same molecule, the GI50 in assay [7] was 42.4 µM; in assay [8], 36.5 µM (inactive); in assay [9], 53.2 µM (inactive); in assay [10] it was 51.6 µM (inactive); in assay [13], 26.9 µM (inactive); in assay [14] it was 21.5 µM (inactive). For the same molecule, the GI50 in [15] is 32.7 µM (inactive); in assay [16], 23.3 µM (inactive); in assay [17], 50.5 µM (inactive); in assay [18], 35.5 µM (inactive); in assay [20] it was 33.9 µM (inactive).
Take `CCCCCCCCCCCC(=O)CC(=O)c1c(O)cccc1O`: the GI50 in assay [1] was 19.6 µM (inactive); in assay [2] it was 19.4 µM (inactive); in assay [3], 17.5 µM (inactive); in [4], 17.1 µM (inactive); in assay [5], 18.6 µM (inactive); in assay [6], 26.9 µM (inactive). Also, the GI50 was 22.6 µM in assay [7]; 29 µM (inactive) in assay [8]; > 100 µM (inactive) in [9]; 18.7 µM (inactive) in assay [10]; 17.7 µM (inactive) in [13]; 19.4 µM (inactive) in [14]. Also, the GI50 is 19.2 µM (inactive) in assay [15]; 20.4 µM (inactive) in assay [16]; 19.3 µM (inactive) in assay [17]; 16.7 µM (inactive) in assay [18]; 16.6 µM (inactive) in assay [20].
